Measured values published in patent publication US20260284003A1, “COMPOSITIONS AND METHOD FOR MANAGEMENT OF PAIN AND ALLERGY” (priority 2023, published 2026).

Key:
IL-6 = test: Inhibition of IL-6 in LPS induced RAW 264.7 macrophages (ELISA); conditions: RAW 264.7, LPS 100 ng/mL; FIG. 3A-3D
Procedure: (§2) Mouse macrophage cell line (RAW264.7) was purchased from National Center for Cell Science (NCCS, Pune, India) and maintained as a monolayer culture in Dulbecco's modified minimal essential medium (DMEM, Life Technologies, CA, USA) supplemented with 10% (v/v) fetal bovine serum (FBS; GIBCO/Invitrogen, Carlsbad, CA) at 37° C. in a humidified 5% CO2 incubator.
RAW 264.7 (5×10^5 cells/well) macrophage cells were induced with LPS (100 ng/mL) along with or without different concentrations of Samples. The supernatants were used for IL6 estimation using ELISA kits as per the manufacturer's instruction (R&D Systems, Minneapolis, Minnesota, USA).

[1] = system: Ovalbumin Induced Respiratory Allergy; test: Organ weight determination, ovalbumin induced respiratory allergy; type: in vivo, BALB/c mice; conditions: for organ weight (in words): compared OVA control, FIG. 10, Table 5; for Organ weight, Spleen / Organ weight, Lungs: mean, BCP 10 mg/kg, PEA 3 mg/kg, BPE 10 mg/kg, BPB 30 mg/kg oral 5 days; for Organ weight, Spleen: control 0.26, OVA 0.80; for Organ weight, Lungs: control 0.65, OVA 1.08
Source text: It is widely known that lungs and spleen weight increase during allergy.

[2] = system: Ovalbumin Induced Respiratory Allergy; test: Evaluation of nasal symptoms, ovalbumin induced respiratory allergy; conditions: BCP 10, PEA 3, BPE 10, BPB 30 mg/kg; for Nasal Redness Score: score 0—normal, 1—faint, 2—medium, 3—dark
Procedure: BALB/c mice (20-30 g body weight) were housed under standard laboratory conditions (temperature 23.5° C., humidity=58-64%), with 12 h light and 12 h dark cycle, fed with normal diet and water ad libitum. […] The number of animals used in each group is 6.
(§3) Control animals were administered with 2% Gum acacia in PBS. All the animals except in Group I were actively sensitized by an intraperitoneal (i.p.) injection of OVA (20 μg/kg body weight) and Aluminum hydroxide (2 mg/kg body weight) in PBS on 0 and 14th day and were challenged with 1% OVA in PBS on 21st, 22nd, and 23rd using Nebulizer for 1 hour. The treatment drugs and standard drug were administered orally for 5 days (18th to 23rd day).
On day 21, 22 and 23 nasal symptoms were evaluated within a 10-minute period after the OVA challenge. […] Sneezing is characterized by an explosive expiration just after a deep inspiration and nose rubbing is characterized by an external perinasal scratch with either one or both forelimbs of animal. Another parameter that was evaluated was redness of the nose (FIG. 13) was by observing the intensity in redness of nostrils and scoring them as the following: 0—normal, 1—faint, 2—medium, and 3—dark.

[3] = system: Ovalbumin Induced Respiratory Allergy; test: Bronchoalveolar lavage fluid (BALF) cell count, ovalbumin induced respiratory allergy; conditions: BCP 10, PEA 3, BPE 10, BPB 30 mg/kg; for Differential Count, PMN - E / Differential Count, PMN - N / Differential Count, Lymphocytes / Differential Count, Macrophages: BALF; for Differential Count, PMN - E: eosinophil, control 0.50, OVA 1.67; for Differential Count, PMN - N: neutrophil, control 1.00, OVA 5.33; for Differential Count, Lymphocytes: control 1.83, OVA 12.00; for Differential Count, Macrophages: control 3.33, OVA 25.17; for Cellular Count (total cell count of BALF): control 6.93, OVA 44.17
Procedure: BALB/c mice (20-30 g body weight) were housed under standard laboratory conditions (temperature 23.5° C., humidity=58-64%), with 12 h light and 12 h dark cycle, fed with normal diet and water ad libitum.
as §3
On day 25, 48 h after final OVA challenge (saline challenge for normal control group), the animals were anesthetized for collection of blood and Bronchoalveolar Lavage (BAL) fluid for biochemical evaluation.
On the day of sacrifice mice were anesthetized, the lungs were gently lavaged three times via the tracheal tube with a volume of 0.7 ml phosphate buffered saline (PBS). BALF was immediately centrifuged at 1500 rpm for 5 min, and the collected supernatant was stored at −70° C. until further analysis. The cell pellet was analysed to determine the total cell count of BALF (Table 9, FIG. 14) and the count of Macrophages, neutrophil, eosinophil, and lymphocyte (Table 10, FIG. 15) counts using a hematology analyzer in BALF fluids.

[4] = system: Cisplatin induced peripheral neuropathy animal models; test: Hot plate test, cisplatin induced peripheral neuropathy; type: in vivo, C57BL/6 mice; conditions: reaction latency, 52° C.; BCP 10 mg, PEA 5 mg, BPE 10 mg, BPB 15 mg, Ibuprofen 30 mg
Procedure: Animals are placed on the hot plate one at a time. Latency to respond to the heat stimulus is measured by the amount of time it takes for the animal to lick one of its paws. Animals were placed on a hot-plate apparatus. In order to measure thermal pain, the temperature of the hot plate surface was set to 52° C. The reaction latency as well as the time between when the animals were placed and the onset of paw-licking or jumping behaviors were measured in seconds(s). To minimize tissue damage, a cut-off time of 40 s was adopted (Moureq et al. Alleviation of cisplatin-induced neuropathic pain, neuronal apoptosis, and systemic inflammation in mice by rapamycin., Frontiers in Aging Neuroscience., 14, 2022).

[5] = system: Human epidermal keratinocyte cells (HaCaT); test: Inhibition of intracellular calcium (H2O2 stimulated, Fluo-8AM); type: cell-based; conditions: samples pre-treated 2 hours, 10 mM H2O2 30 mins, FIG. 1A-1D, combination ratio 1:1:0.3
Procedure: Various environmental stimuli or neurotransmitters often cause changes in intracellular calcium concentration in the skin. Keratinocytes, primary cell type found in the outermost layer of the skin. Epidermal keratinocytes express functional sensory receptors, such as TRPV1, TRPV3, and TRPV4. Pain stimulus increases intracellular calcium through TRPV channels. Hydrogen peroxide mediated calcium stimulation was tested. Human epidermal keratinocyte cells (HaCaT) (5×10^4) were seeded in 96 black well plate for overnight. Samples were Pre-treated for 2 hours in 1% DMEM. Cells were stimulated with 10 mM H2O2 for 30 mins, and Fluo-8AM dye was added (HBBS buffer) for 1 hr. After incubation, cells were washed with PBS twice and the fluorescence was measured at the Ex/Em of 485/520 nm.

COX-2 = COX-2 expression in spinal tissue lysate (Western blotting); type: in vivo, C57BL/6 mice; conditions: normalized to GAPDH, cisplatin = 1, control 0.7, BCP 10 mg, PEA 5 mg, BPE 10 mg, BPB 15 mg, Ibuprofen 30 mg, oral 21 days
Procedure: (§1) In the current study, TRPV1 and COX-2 expression was assessed in the spinal tissue lysate of the animals, using Western blotting. Briefly, proteins from the spinal tissue were separated in a 10% SDS-PAGE and transferred to PVDF membrane. The TRPV1 and COX-2 expressions were probed using specific monoclonal antibodies (ABclonal, Dusseldorf, Germany). GAPDH was used as housekeeping gene control. The expression of TRPV1 and COX-2 were normalized to that of GAPDH, and fold change was calculated w.r.t cisplatin group.

[6] = system: Cisplatin induced peripheral neuropathy animal models; test: Tail-flick test, cisplatin induced peripheral neuropathy; type: in vivo, C57BL/6 mice; conditions: tail withdrawal latency; BCP 10 mg, PEA 5 mg, BPE 10 mg, BPB 15 mg, Ibuprofen 30 mg
Procedure: This is a test of acute nociception in which a high-intensity thermal stimulus is directed to the tail of a mouse or a rat. The time from onset of stimulation to a rapid flick/withdrawal of the tail from heat source is recorded. Thermal (radiant heat) sensation of animal tail part was assessed by observation of tail flick response as per D'Aemour and Smith method with minor modifications (Hargreaves et al. A new and sensitive method for measuring thermal nociception in cutaneous hyperalgesia. Pain 32 (1988) 77-88). The one-centimeter distance from the tail terminal region was located on the slit of the plantar device. Thermal sensitivity of mice tail was recorded as tail withdrawal latency. Brisk withdrawal of tail from the plantar device was considered as a progression of neuropathic pain. Cut-off stimuli, i.e., 15 s was maintained to avoid potential tissue damage. Mice were tested after 24 h of treatment injections for the drug-response evaluation.

Mouse mast cells P815 = test: Inhibition of histamine release from C48/80 activated mast cells; type: cell-based; conditions: P815, 80 μg/ml C48/80, 30 min; FIG. 4A-4D
Procedure: Reaction was terminated by placing the cells on ice for 10 mins and centrifuged for 5 minutes at 2400 rpm. 100 μL of cell supernatant was mixed with 50 μL of 4N NaOH and 10 μL of O-Phthaldialdehyde (OPT, 1 mg·mL-1 in methanol, Sigma). By incubation at room temperature for 10 min, 50 μL of 1N HCl was added to stop the reaction. The fluorescence was measured at Ex/Em of 390/460 nm using a microplate reader (FLOUSTAR).

TRPV1 = TRPV1 expression in spinal tissue lysate (Western blotting); type: in vivo, C57BL/6 mice; conditions: normalized to GAPDH, cisplatin = 1, control 0.3, BCP 10 mg, PEA 5 mg, BPE 10 mg, BPB 15 mg, Ibuprofen 30 mg, oral 21 days
Procedure: as §1

Interleukin-1β (IL-1β) = test: IL-1β in spinal fluids, cisplatin induced peripheral neuropathy (ELISA); conditions: cisplatin mice, oral 21 days, FIG. 6
Procedure: (§4) As an illustrative example to evaluate the effect of the composition on reducing pain, in-vivo experiments were carried out in Cisplatin induced peripheral neuropathy animal models.
(§5) In the present study, these were estimated in the spinal fluids of the animals using ELISA kits as per the manufacturer's instruction (R&D Systems, Minneapolis, Minnesota, USA).

inducible nitric oxide = test: Inhibition of inducible nitric oxide (Griess reaction); conditions: macrophages, nitrite in cell supernatant; FIG. 2A-2C
Procedure: as §2
The Nitrite estimation was carried out using the Griess reaction. To the 50 μL of cell supernatant, Griess reagent I (50 μL) and Griess reagent II (50 μL) were added and incubated for 10 min at room temperature and absorbance were read at 540 nm using Microplate reader.

[7] = system: tumor necrosis factor-α (TNF-α); test: TNF-α in spinal fluids, cisplatin induced peripheral neuropathy (ELISA); conditions: cisplatin mice, oral 21 days, FIG. 5
Procedure: as §4, §5

[8] = day 21, 10-minute period after OVA challenge, OVA 6.00
[9] = day 21, 10-minute period after OVA challenge, OVA 88.67
[10] = day 22, 10-minute period after OVA challenge, OVA 5.50
[11] = day 22, 10-minute period after OVA challenge, OVA 82.17
[12] = day 23, 10-minute period after OVA challenge, OVA 4.00
[13] = day 23, 10-minute period after OVA challenge, OVA 83.17

| SMILES | inhibition of IL6 induced by LPS (IL-6) | organ weight (in words) [1] | Organ weight, Spleen [1] | Organ weight, Lungs [1] | Number of Sneezing [2, 8] | Nose rubbing [2, 9] | Number of Sneezing [2, 10] | Nose rubbing [2, 11] | Nasal Redness Score ([2]; day 22, OVA 2.17) | Number of Sneezing [2, 12] | Nose rubbing [2, 13] | Nasal Redness Score ([2]; day 23, OVA 1.17) | Differential Count, PMN - E [3] | Differential Count, PMN - N [3] | Differential Count, Lymphocytes [3] | Differential Count, Macrophages [3] | Cellular Count (total cell count of BALF) [3] | Hot plate test Mean Diff., Cisplatin vs. treatment (Tukey's multiple comparisons test) [4] | inhibition of intracellular calcium levels [5] | Cox 2 expression (fold change w.r.t cisplatin group) (COX-2) | further results |
| --- | --- | --- | --- | --- | --- | --- | --- | --- | --- | --- | --- | --- | --- | --- | --- | --- | --- | --- | --- | --- | --- |
| CCCCCCCCCCCCCCCC(=O)NCCO [PEA, Palmitoylethanolamide] | dose dependent inhibition of IL6 induced by LPS | showed decrease in organ weight | 0.50 | 0.83 | 2.60 | 66.40 | 2.80 | 58.40 | 1.00 | 3.00 | 66.40 | 0.80 | 1.20 | 1.80 | 2.80 | 5.00 | 10.80 | −5.958 | showed inhibition of intracellular calcium levels | 0.3 | Tail Flick test Mean Diff., Cisplatin vs. treatment (Tukey's multiple comparisons test) [6]: −4.167; inhibition of histamine release from mast cells (Mouse mast cells P815): lower activity; TRPV1 expression (fold change w.r.t cisplatin group) (TRPV1): 2.8 |
| C=C1CC/C=C(\C)CC[C@@H]2[C@@H]1CC2(C)C [BCP, β-Caryophyllene] | lower activity | showed decrease in organ weight | 0.51 | 0.76 | 3.33 | 52.83 | 2.67 | 51.33 | 0.67 | 1.50 | 52.83 | 0.17 | 1.50 | 1.50 | 4.17 | 11.00 | 18.17 | −12.13 | showed inhibition of intracellular calcium levels | 0.8 | inhibition of Interleukin-1β (IL-1β) (Interleukin-1β (IL-1β)): showed inhibition; inhibition of nitric oxide levels (inducible nitric oxide): showed inhibition of nitric oxide levels; inhibition of tumor necrosis factor-α (TNF-α) [7]: showed inhibition; Tail Flick test Mean Diff., Cisplatin vs. treatment (Tukey's multiple comparisons test) [6]: −3.125; inhibition of histamine release from mast cells (Mouse mast cells P815): dose dependent inhibition of histamine release from mast cells; TRPV1 expression (fold change w.r.t cisplatin group) (TRPV1): 0.1 |
